Patent US11712434B2, “Compound having anti-cancer effect, and preparation method therefor and use thereof” (3D MEDICINES (BEIJING) CO., LTD., priority 2016, dated 2023)

Assays:
Assay in all cases: Cell proliferation assay (Alamar Blue)
Assay type in all cases: cell-based
[1] = test system: JHH5; conditions: 144 h; JHH5 liver cancer cell line; 6 days culture
Method: (§1) 1. Instruments and Materials • Thermo 311 CO2 incubator; Haier biosafety cabinet; Molecular Devices microplate reader; Xiangyi brand L530 desktop low speed centrifuge; Olympus IX51 inverted fluorescence microscope, DMEM, RPMI 1640, MEM, DMEM/F12 1:1 medium, Fetal bovine serum, 0.25% trypsin solution, phosphate buffer (Thermo Fisher Shanghai Co., Ltd.); sigma dimethyl sulfoxide (DMSO), resazurin; 54 commercial tumor cell lines (including 26 liver cancer cell lines). Experimental drugs: compounds 1-12 and active drug Linifanib; chemotherapeutic drug Doxorubicin (HY-15142; Shanghai Qianyuan Biomedical Technology Co., Ltd.).
(§2) 2. Experimental Methods • 2.1 Cultivation of Different Cell Lines • 54 cell lines were cultured in a culture medium containing fetal bovine serum and placed in a 5% CO2 incubator at 37° C. for incubation. The cells were all grown in an adherent state, and the growth was observed under an inverted microscope, and subculture was performed when the cell confluence rate reached 80%-90%. The proportion and quantity of passage were determined by experimental needs. The ratio of subculture of this cell line was generally 1:2^˜1:3. • 2.2 Inhibition Effect on the Proliferation of Different Tumor Cell Lines • Cell test: 54 cell lines in logarithmic growth phase were inoculated in 96-well culture plates at 500^˜1×10^4/well (the optimal seeding density of each cell line was determined in pre-experiment), After incubating at 37° C. for 4 h in a 5% CO2 humidification incubator, added 10 μL of compounds 1-12 or Linifanib to each well, and tested 9 drug concentration gradients for each compound (diluted from the highest concentration of the test by 3.16 times). The solubility of each compound was different at a starting concentration of 100 or 30 μM, respectively. The QC reference compound Doxorubicin was added simultaneously to each cell line test, and the final drug concentrations were 10, 3.16, 1, 0.31, 0.1, 0.03, 0.01, 0.003, and 0.001 μM, respectively. In addition, a positive control group (100% inhibition) and a negative control group (0% inhibition) were set at the same time. The drug group was repeated for 2 wells per concentration, and the positive control group and the negative control group were repeated for 6 wells. After the culture was continued for 6 days in the incubator, AlamarBlue test operation was followed; • AlamarBlue test procedure: Incubated with 10 μL of AlamarBlue reagent per well for 1-4 h, shook for 1-2 min, MD microplate reader EX: 560 nm, EM: 590 nm wavelength to measure fluorescence, recorded the results, calculated the cell inhibition rate of the compound of the invention. Cell inhibition rate (%)=(A0% inhibition−A administration)/(A0% inhibition−A100% inhibition)×100%, and then using the method of nonlinear regression using GraphPad Prism 5.0 or MATILAB software (usually using four parameters) to graph and obtain a drug dose response curve to obtain an IC50 value of the compound of the present invention acting on a cancer cell line.

[2] = test system: JHH7; conditions: 144 h; JHH7 liver cancer cell line; 6 days culture
Method: as §1, §2

[3] = test system: AN3CA; conditions: Homo sapiens, AN3-CA, 144 h; AN3CA tumor cell line; 6 days culture
Method: as §1, §2

[4] = test system: MDA-MB-435S; conditions: Homo sapiens, 144 h; MDA-MB-435S tumor cell line; 6 days culture
Method: as §1, §2

[5] = test system: HT55; conditions: Homo sapiens, 144 h; HT55 tumor cell line; 6 days culture
Method: as §1, §2

[6] = test system: MDA-MB-231; conditions: Homo sapiens, 144 h; MDA-MB-231 tumor cell line; 6 days culture
Method: as §1, §2

[7] = test system: JHH1; conditions: 144 h; JHH1 liver cancer cell line; 6 days culture
Method: as §1, §2

[8] = test system: JHH2; conditions: JHH-2, 144 h; JHH2 liver cancer cell line; 6 days culture
Method: as §1, §2

[9] = test system: HUH6; conditions: Homo sapiens, HuH-6, 144 h; HUH6 liver cancer cell line; 6 days culture
Method: as §1, §2

[10] = test system: TE-15; conditions: Homo sapiens, 144 h; TE-15 tumor cell line; 6 days culture
Method: as §1, §2

[11] = test system: MG63; conditions: Homo sapiens, MG-63, 144 h; MG63 tumor cell line; 6 days culture
Method: as §1, §2

[12] = test system: NCI-H2170; conditions: Homo sapiens, 144 h; NCI-H2170 tumor cell line; 6 days culture
Method: as §1, §2

[13] = test system: SNU423; conditions: Homo sapiens, SNU-423, 144 h; SNU423 liver cancer cell line; 6 days culture
Method: as §1, §2

[14] = test system: TE-6; conditions: Homo sapiens, 144 h; TE-6 tumor cell line; 6 days culture
Method: as §1, §2

[15] = test system: SK-HEP-1; conditions: Homo sapiens, SK-HEP1, 144 h; SK-HEP-1 liver cancer cell line; 6 days culture
Method: as §1, §2

[16] = test system: SNU475; conditions: Homo sapiens, SNU-475, 144 h; SNU475 liver cancer cell line; 6 days culture
Method: as §1, §2

[17] = test system: HT1080; conditions: Homo sapiens, HT-1080, 144 h; HT1080 tumor cell line; 6 days culture
Method: as §1, §2

[18] = test system: HLE; conditions: Homo sapiens, 144 h; HLE liver cancer cell line; 6 days culture
Method: as §1, §2

[19] = test system: SNU449; conditions: Homo sapiens, SNU-449, 144 h; SNU449 liver cancer cell line; 6 days culture
Method: as §1, §2

[20] = test system: T.T; conditions: Homo sapiens, TT, 144 h; T.T tumor cell line; 6 days culture
Method: as §1, §2

[21] = test system: HuTu80; conditions: Homo sapiens, 144 h; HuTu80 tumor cell line; 6 days culture
Method: as §1, §2

[22] = test system: SNU761; conditions: 144 h; SNU761 liver cancer cell line; 6 days culture
Method: as §1, §2

[23] = test system: KM12; conditions: Homo sapiens, 144 h; KM12 tumor cell line; 6 days culture
Method: as §1, §2

[24] = test system: SNU354; conditions: Homo sapiens, SNU-354, 144 h; SNU354 liver cancer cell line; 6 days culture
Method: as §1, §2

[25] = test system: K562; conditions: Homo sapiens, 144 h; K562 tumor cell line; 6 days culture
Method: as §1, §2

[26] = test system: SNU886; conditions: SNU-886, 144 h; SNU886 liver cancer cell line; 6 days culture
Method: as §1, §2

[27] = test system: JHH4; conditions: JHH-4, 144 h; JHH4 liver cancer cell line; 6 days culture
Method: as §1, §2

[28] = test system: DLD1; conditions: Homo sapiens, DLD-1, 144 h; DLD1 tumor cell line; 6 days culture
Method: as §1, §2

| SMILES | IC50 [1] | IC50 [2] | IC50 [3] | IC50 [4] | IC50 [5] | IC50 [6] | IC50 [7] | IC50 [8] | IC50 [9] | IC50 [10] | IC50 [11] | IC50 [12] | IC50 [13] | IC50 [14] | IC50 [15] | IC50 [16] | IC50 [17] | IC50 [18] | IC50 [19] | IC50 [20] | also measured |
| --- | --- | --- | --- | --- | --- | --- | --- | --- | --- | --- | --- | --- | --- | --- | --- | --- | --- | --- | --- | --- | --- |
| Cc1ccc(F)c(NC(=O)Nc2ccc(-c3cccc4[nH]nc(NC(=O)C[C@H](N)C(=O)N[C@@H](CCC(=O)O)C(=O)O)c34)cc2)c1 [Compound 1] | 16.6 µM | 1.54 µM | 0.34 µM | 10.5 µM | 24.7 µM | 7.61 µM | 21.4 µM | 43.6 µM | 52.9 µM | 2.94 µM | 2.34 µM | 5.32 µM | 25.4 µM | 10.5 µM | 16.6 µM | 4.81 µM | 10.4 µM | 2.84 µM | 16.5 µM | 9.24 µM | IC50 [21]: 1.98 µM; IC50 [22]: 12.6 µM; IC50 [23]: 3.71 µM; IC50 [24]: 3.59 µM; IC50 [25]: 17.2 µM; IC50 [26]: 7.24 µM; IC50 [27]: 25 µM; IC50 [28]: 18.5 µM |
| Cc1ccc(F)c(NC(=O)Nc2ccc(-c3cccc4[nH]nc(NC(=O)C[C@H](N)C(=O)N[C@@H](CCC(=O)N[C@@H](CCC(=O)N[C@@H](CCC(=O)N[C@@H](CCC(=O)O)C(=O)O)C(=O)O)C(=O)O)C(=O)O)c34)cc2)c1 [Compound 2] | 24.7 µM | 4.26 µM | 0.73 µM | 18.6 µM | 40.1 µM | 12.4 µM | 33.9 µM | 88.2 µM | 79 µM | 7.29 µM | 5.49 µM | 7.69 µM | 33.2 µM | 27.6 µM | 31 µM | 11.2 µM | 24.9 µM | 6.47 µM | 25.7 µM | 16.9 µM | IC50 [21]: 4.26 µM; IC50 [22]: 19.5 µM; IC50 [23]: 5.48 µM; IC50 [24]: 8.62 µM; IC50 [25]: 29.5 µM; IC50 [26]: 16.9 µM; IC50 [27]: 36.8 µM; IC50 [28]: 29.2 µM |
